For data set [1], the system named is HUVEC. The data set is described as follows: Antiangiogenic activity against VEGF-induced HUVEC cells assessed as reduction in cell migration at 5 uM measured after 48 hrs by Transwell assay. Format: functional, cell-based. The conditions noted are these: Homo sapiens.
Data set [2] deals with HUVEC. Kind of data set: Antiangiogenic activity against VEGF-induced HUVEC cells assessed as reduction in wound healing at 5 uM measured after 48 hrs by scratch-wound healing assay. Format: functional, cell-based. The conditions noted are these: Homo sapiens.
Data set [3] deals with HUVEC. Kind of data set: Antiangiogenic activity against VEGF-stimulated HUVEC cells assessed as reduction in number of sprouting tubules at 5 uM measured after 48 hrs by Matrigel assay based microscopic analysis. The data set is classed as functional, cell-based. The settings on record: Homo sapiens.
For data set [4], the system named is HUVEC. The data set is described as follows: Induction of apoptosis in VEGF-stimulated HUVEC cells at 5 uM measured after 48 hrs by AnnexinV-FITC/PI staining based flow cytometry. The settings on record: Homo sapiens. Format: functional, cell-based. On the technique in general: Flow cytometry measures light scatter and fluorescence of single cells or particles in a stream.

Data set [5] deals with HUVEC. The data set is described as follows: Induction of apoptosis in VEGF-stimulated HUVEC cells assessed as mitochondrial membrane potential alteration at 5 uM measured after 48 hrs by JC-1 staining based flow cytometry. Format: functional, cell-based. The settings on record: Homo sapiens.
For data set [6], the system named is HUVEC. Kind of data set: Induction of apoptosis in VEGF-stimulated HUVEC cells assessed as increase in Cytochrome c protein expression at 5 uM measured after 48 hrs by DAPI staining based confocal microscopy. The settings on record: Homo sapiens. Format: functional, cell-based.
In data set [7] the test system is HUVEC. The data set is described as follows: Induction of apoptosis in VEGF-stimulated HUVEC cells assessed as increase in Bax/Bcl2 ratio at 5 uM measured after 48 hrs by western blot analysis. The data set is classed as functional, cell-based. The conditions noted are these: Homo sapiens.
For data set [8], the system named is HUVEC. Kind of data set: Induction of apoptosis in VEGF-stimulated HUVEC cells assessed as increase in cleaved caspase-3 protein expression at 5 uM measured after 48 hrs by western blot analysis. The conditions noted are these: Homo sapiens. The data set is classed as functional, cell-based. (In general: Immunoblotting shows a protein as a band on a membrane.)

Data set [9] deals with HUVEC. The data set is described as follows: Downregulation of HIF-1alpha expression in VEGF-stimulated HUVEC cells at 5 uM measured after 48 hrs by western blot analysis. The settings on record: Homo sapiens. Format: functional, cell-based.
The subject of data set [10] is HUVEC. Kind of data set: Inhibition of VEGFR2 expression in VEGF-induced HUVEC cells at 5 uM incubated for 48 hrs by DAPI staining based confocal microscopy. The data set is classed as functional, cell-based. The conditions noted are these: Homo sapiens.
Data set [11] concerns HUVEC. Kind of data set: Cytotoxicity against HUVEC cells assessed as reduction in cell vaibility at 5 uM incubated for 48 hrs by MTT assay. Format: cell-based. The settings on record: human.
Data set [12] deals with HUVEC. Kind of data set: Induction of apoptosis in VEGF-stimulated HUVEC cells assessed as increase in cleaved caspase-9 protein expression at 5 uM measured after 48 hrs by western blot analysis. Format: functional, cell-based. The settings on record: Homo sapiens.
The test system of data set [13] is HUVEC. Kind of data set: Downregulation of HIF-1alpha expression in VEGF-stimulated HUVEC cells at 5 uM measured after 48 hrs by DAPI staining based confocal microscopy. Format: functional, cell-based. The settings on record: Homo sapiens.
Data set [14] has as its system HUVEC. Kind of data set: Effect on HIF-1beta expression in VEGF-stimulated HUVEC cells at 5 uM measured after 48 hrs by western blot analysis. The data set is classed as functional, cell-based. The conditions noted are these: Homo sapiens.
Data set [15] addresses Dual specificity mitogen-activated protein kinase kinase; MEK1/2 (Homo sapiens) (UniProt P36507+Q02750). The data set is described as follows: Inhibition of MEK1/2 in VEGF-stimulated HUVEC cells assessed as reduction in phosphorylated MEK1/2 level at 5 uM incubated for 48 hrs by immunoblot analysis. Format: cell-based.
The target in data set [16] is Mitogen-activated protein kinase; ERK1/ERK2 (Homo sapiens) (UniProt P27361+P28482). The data set is described as follows: Inhibition of ERK1/2 in VEGF-stimulated HUVEC cells assessed as reduction in phosphorylated […] at 5 uM incubated for 48 hrs by immunoblot analysis. Format: cell-based.
Data set [17] deals with HUVEC. Kind of data set: Induction of apoptosis in VEGF-stimulated HUVEC cells assessed as increase in early apoptotic cells at 250 nM measured after 48 hrs by AnnexinV-FITC/PI staining based flow cytometry. The data set is classed as functional, cell-based. The conditions noted are these: Homo sapiens.
Data set [18] concerns HUVEC. The data set is described as follows: Induction of apoptosis in VEGF-stimulated HUVEC cells assessed as increase in late apoptotic cells at 250 nM measured after 48 hrs by AnnexinV-FITC/PI staining based flow cytometry. Format: functional, cell-based. The settings on record: Homo sapiens.
Data set [19] relates to HUVEC. The data set is described as follows: Induction of apoptosis in VEGF-stimulated HUVEC cells assessed as mitochondrial membrane potential alteration at 250 nM measured after 48 hrs by JC-1 staining based flow cytometry. The settings on record: Homo sapiens. The data set is classed as functional, cell-based.
Data set [20] concerns HUVEC. The data set is described as follows: Induction of apoptosis in VEGF-stimulated HUVEC cells assessed as increase in Bax/Bcl2 ratio at 250 nM measured after 48 hrs by western blot analysis. The settings on record: Homo sapiens. Format: functional, cell-based.
In data set [21] the test system is HUVEC. Kind of data set: Induction of apoptosis in VEGF-stimulated HUVEC cells assessed as increase in cleaved caspase-3 protein expression at 250 nM measured after 48 hrs by western blot analysis. Format: functional, cell-based. The settings on record: Homo sapiens.
Data set [22] has as its system HUVEC. The data set is described as follows: Induction of apoptosis in VEGF-stimulated HUVEC cells assessed as increase in cleaved caspase-9 protein expression at 250 nM measured after 48 hrs by western blot analysis. Format: functional, cell-based. The conditions noted are these: Homo sapiens.

Among the data in ChEMBL document CHEMBL4837223, “Anti-angiogenesis Function of Ononin via Suppressing the MEK/Erk Signaling Pathway” (J Nat Prod, 2021) are Activity and inhibition values, retold here.

Molecules are shown by their SMILES. Active and inactive are the calls of the source. No cut-off for these calls is given here.

Mitogen-activated protein kinase; ERK1/ERK2 (Homo sapiens), sequence (P27361 whole entry, looked up): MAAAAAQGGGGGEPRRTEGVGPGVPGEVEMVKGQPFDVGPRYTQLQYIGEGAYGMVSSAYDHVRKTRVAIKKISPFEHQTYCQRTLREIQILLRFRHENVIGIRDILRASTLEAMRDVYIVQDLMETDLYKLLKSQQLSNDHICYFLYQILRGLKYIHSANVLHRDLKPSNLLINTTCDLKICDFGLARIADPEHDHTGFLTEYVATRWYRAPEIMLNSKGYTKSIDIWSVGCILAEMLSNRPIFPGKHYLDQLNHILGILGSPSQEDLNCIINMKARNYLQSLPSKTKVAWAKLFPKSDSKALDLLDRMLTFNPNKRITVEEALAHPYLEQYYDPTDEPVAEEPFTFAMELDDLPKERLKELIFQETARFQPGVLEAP
Mitogen-activated protein kinase; ERK1/ERK2 (Homo sapiens), sequence (P28482 whole entry, looked up): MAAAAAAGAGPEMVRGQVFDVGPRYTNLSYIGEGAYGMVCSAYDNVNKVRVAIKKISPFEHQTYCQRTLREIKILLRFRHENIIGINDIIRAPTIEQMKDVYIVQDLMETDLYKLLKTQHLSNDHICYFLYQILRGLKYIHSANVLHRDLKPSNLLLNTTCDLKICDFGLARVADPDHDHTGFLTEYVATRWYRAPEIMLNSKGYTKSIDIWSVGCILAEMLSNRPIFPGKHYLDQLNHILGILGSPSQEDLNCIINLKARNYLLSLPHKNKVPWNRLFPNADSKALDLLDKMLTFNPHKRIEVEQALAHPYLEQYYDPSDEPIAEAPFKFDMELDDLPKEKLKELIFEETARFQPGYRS
Dual specificity mitogen-activated protein kinase kinase; MEK1/2 (Homo sapiens), sequence (P36507 whole entry, looked up): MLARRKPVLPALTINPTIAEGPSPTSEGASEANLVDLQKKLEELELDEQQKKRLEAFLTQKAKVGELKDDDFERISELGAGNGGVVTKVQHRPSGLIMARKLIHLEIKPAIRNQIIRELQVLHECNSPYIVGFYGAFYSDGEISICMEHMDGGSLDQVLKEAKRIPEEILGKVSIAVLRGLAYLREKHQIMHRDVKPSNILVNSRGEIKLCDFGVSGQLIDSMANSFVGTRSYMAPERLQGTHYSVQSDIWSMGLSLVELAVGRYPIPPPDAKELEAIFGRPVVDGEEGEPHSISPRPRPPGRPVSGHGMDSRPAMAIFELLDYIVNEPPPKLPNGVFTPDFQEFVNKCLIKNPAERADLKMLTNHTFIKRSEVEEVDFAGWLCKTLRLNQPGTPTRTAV
Dual specificity mitogen-activated protein kinase kinase; MEK1/2 (Homo sapiens), sequence (Q02750 whole entry, looked up): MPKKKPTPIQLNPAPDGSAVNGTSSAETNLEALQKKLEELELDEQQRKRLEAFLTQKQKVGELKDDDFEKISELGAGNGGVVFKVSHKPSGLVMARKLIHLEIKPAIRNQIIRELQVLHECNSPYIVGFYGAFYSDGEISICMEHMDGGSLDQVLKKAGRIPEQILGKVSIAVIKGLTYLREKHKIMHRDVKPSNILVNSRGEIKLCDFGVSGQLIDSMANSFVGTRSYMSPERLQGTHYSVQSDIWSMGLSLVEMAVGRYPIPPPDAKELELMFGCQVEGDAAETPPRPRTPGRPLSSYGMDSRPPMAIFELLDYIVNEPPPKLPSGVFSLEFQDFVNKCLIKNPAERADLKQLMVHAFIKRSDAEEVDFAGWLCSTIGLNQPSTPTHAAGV

With `COc1ccc(-c2coc3cc(O[C@@H]4O[C@H](CO)[C@@H](O)[C@H](O)[C@H]4O)ccc3c2=O)cc1` [ONONIN], the outcome in the data set on HUVEC [1], with HUVEC [2], with HUVEC [3], with HUVEC [4], in the data set on HUVEC [5] and in the data set on HUVEC [6] was Active. In addition, the result with HUVEC [7], in the data set on HUVEC [8] and in the data set on HUVEC [12] was Active. Further, the inhibition result (with HUVEC [9]; in the data set with HUVEC [10]; with HUVEC [13]; in [15]; in data set [16]) was “Active” throughout. Further, in the data set with HUVEC [11], the Activity result is on record as “Non-Toxic”. Further, in the data set with HUVEC [14], the outcome was inactive.
For the compound `CN[C@@H]1C[C@H]2O[C@@](C)([C@@H]1OC)n1c3ccccc3c3c4c(c5c6ccccc6n2c5c31)C(=O)NC4`, the result with HUVEC [17], in the data set with HUVEC [18], with HUVEC [19], with HUVEC [20], with HUVEC [21] and in the data set on HUVEC [22] was Active.
